According to ChEMBL document CHEMBL1134710, “The C4 hydroxyl group of phorbol esters is not necessary for protein kinase C binding” (Bioorg Med Chem Lett, 2001):

Tests used:
HL-60 [1] = experiment: Compound was tested in vitro for percent EBV0EA-inducing activity in […] cells at concentration 10e-5 M; type: functional, cell-based, Homo sapiens
HL-60 [2] = experiment: (§1) Compound was tested in vitro for percent EBV0EA-inducing activity in […] cells at concentration 10e-6 M; type: functional, cell-based, Homo sapiens
HL-60 [3] = experiment: Compound was tested in vitro for its ability to induce superoxide generation in HL-60 cells at concentration 10e-6 M; type: functional, Homo sapiens
[4] = target: T1, Protein kinase C eta type (Homo sapiens, UniProt P24723); experiment: Displacement of 3[H]PDBu from Protein kinase C eta C1b domain
T1 sequence (P24723 whole entry, the tested form may be a part): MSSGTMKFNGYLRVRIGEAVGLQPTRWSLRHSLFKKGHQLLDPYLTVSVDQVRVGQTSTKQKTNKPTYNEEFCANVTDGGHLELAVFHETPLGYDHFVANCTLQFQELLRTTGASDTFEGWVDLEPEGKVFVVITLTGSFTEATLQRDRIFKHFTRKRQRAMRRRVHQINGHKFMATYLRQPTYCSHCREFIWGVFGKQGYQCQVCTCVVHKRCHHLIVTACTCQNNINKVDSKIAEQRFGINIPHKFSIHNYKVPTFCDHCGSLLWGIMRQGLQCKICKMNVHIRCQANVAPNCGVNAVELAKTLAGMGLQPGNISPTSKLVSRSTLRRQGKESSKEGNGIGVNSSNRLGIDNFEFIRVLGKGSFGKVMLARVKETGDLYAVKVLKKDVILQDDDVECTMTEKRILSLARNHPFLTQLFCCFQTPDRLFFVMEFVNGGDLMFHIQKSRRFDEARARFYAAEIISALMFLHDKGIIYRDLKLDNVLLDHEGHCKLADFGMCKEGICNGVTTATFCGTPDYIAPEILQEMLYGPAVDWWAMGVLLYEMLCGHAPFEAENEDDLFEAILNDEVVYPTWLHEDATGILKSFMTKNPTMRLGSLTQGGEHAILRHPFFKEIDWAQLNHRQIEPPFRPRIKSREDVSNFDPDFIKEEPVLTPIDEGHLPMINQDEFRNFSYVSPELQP

[5] = target: Protein kinase C theta type (Homo sapiens, UniProt Q04759); experiment: Displacement of 3[H]PDBu from Protein kinase C theta C1b domain
Sequence of Protein kinase C theta type (Q04759 whole entry, the tested form may be a part): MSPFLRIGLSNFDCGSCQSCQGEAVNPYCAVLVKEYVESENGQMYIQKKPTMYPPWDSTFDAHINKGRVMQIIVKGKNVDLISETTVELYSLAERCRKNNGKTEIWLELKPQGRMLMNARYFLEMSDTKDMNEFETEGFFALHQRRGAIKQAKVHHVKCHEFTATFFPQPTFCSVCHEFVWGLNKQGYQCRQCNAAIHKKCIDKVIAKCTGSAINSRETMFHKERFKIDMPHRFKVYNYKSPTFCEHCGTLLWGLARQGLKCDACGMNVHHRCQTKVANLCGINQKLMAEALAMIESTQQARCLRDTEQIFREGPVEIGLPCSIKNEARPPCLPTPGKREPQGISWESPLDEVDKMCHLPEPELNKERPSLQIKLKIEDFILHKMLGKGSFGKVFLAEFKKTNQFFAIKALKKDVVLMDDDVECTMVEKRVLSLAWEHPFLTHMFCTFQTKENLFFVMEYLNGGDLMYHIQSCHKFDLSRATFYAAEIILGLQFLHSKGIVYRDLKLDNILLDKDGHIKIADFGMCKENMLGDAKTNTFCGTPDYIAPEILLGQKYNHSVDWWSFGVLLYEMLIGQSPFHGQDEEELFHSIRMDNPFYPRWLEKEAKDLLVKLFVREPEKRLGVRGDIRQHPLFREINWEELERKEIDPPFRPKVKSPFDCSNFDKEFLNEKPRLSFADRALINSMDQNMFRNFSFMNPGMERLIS

HL-60 [6] = experiment: Compound was tested in vitro for its ability to induce superoxide generation in HL-60 cells at concentration 10e-8 M; type: functional, Homo sapiens
HL-60 [7] = experiment: Compound was tested in vitro for percent EBV0EA-inducing activity in […] cells at concentration 10e-9 M; type: functional, Homo sapiens
HL-60 [8] = experiment: Compound was tested in vitro for its ability to induce superoxide generation in HL-60 cells at concentration 10e-7 M; type: functional, Homo sapiens
HL-60 [9] = experiment: as §1; type: functional, Homo sapiens
[10] = target: T2, Protein kinase C beta type (Homo sapiens, UniProt P05771); experiment: Displacement of 3[H]PDBu from Protein kinase C beta C1a domain
T2 sequence (P05771 whole entry, the tested form may be a part): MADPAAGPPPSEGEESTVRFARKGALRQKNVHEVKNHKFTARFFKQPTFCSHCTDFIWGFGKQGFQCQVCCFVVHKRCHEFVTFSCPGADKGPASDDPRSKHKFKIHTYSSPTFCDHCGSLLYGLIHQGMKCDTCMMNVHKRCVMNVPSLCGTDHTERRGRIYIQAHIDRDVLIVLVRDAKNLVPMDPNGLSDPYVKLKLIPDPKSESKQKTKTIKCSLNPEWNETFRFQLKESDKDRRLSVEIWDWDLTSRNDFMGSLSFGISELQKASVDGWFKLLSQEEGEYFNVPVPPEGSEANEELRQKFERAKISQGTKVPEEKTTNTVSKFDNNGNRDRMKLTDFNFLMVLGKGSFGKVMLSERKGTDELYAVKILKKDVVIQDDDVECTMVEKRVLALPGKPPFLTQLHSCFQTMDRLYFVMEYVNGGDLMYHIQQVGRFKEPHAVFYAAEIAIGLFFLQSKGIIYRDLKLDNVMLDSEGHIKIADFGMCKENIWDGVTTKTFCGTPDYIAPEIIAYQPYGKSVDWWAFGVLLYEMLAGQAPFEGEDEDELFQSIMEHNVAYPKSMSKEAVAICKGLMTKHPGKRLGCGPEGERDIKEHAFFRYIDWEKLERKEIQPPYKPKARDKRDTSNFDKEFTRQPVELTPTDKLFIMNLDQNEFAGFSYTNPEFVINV

[11] = target: T3, Protein kinase C delta type (Homo sapiens, UniProt Q05655); experiment: Displacement of 3[H]PDBu from Protein kinase C delta C1a domain
T3 sequence (Q05655 whole entry, the tested form may be a part): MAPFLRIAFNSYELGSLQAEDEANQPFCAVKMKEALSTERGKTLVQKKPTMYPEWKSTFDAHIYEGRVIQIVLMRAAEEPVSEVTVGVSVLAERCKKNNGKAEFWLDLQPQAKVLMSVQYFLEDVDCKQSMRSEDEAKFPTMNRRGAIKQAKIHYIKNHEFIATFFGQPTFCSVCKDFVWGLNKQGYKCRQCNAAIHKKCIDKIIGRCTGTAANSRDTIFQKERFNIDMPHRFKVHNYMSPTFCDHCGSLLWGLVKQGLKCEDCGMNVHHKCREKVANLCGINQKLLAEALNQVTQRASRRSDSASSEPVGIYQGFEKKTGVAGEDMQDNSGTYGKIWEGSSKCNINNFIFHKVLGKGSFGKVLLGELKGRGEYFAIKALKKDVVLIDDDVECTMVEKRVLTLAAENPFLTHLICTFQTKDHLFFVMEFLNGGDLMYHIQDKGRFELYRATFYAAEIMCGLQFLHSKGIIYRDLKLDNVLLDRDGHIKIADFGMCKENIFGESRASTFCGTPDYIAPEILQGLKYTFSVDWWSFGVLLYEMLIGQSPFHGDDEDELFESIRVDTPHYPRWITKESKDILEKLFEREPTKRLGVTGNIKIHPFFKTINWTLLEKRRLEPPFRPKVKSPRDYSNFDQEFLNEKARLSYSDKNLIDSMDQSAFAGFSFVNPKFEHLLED

[12] = target: T4, Protein kinase C gamma type (Homo sapiens, UniProt P05129); experiment: Displacement of 3[H]PDBu from Protein kinase C gamma C1a domain
[13] = target: T4, Protein kinase C gamma type; experiment: Displacement of 3[H]PDBu from Protein kinase C gamma C1b domain
HL-60 [14] = experiment: Compound was tested in vitro for percent EBV0EA-inducing activity in […] cells at concentration 10e-7 M; type: functional, Homo sapiens
[15] = target: T5, Protein kinase C alpha type (Homo sapiens, UniProt P17252); experiment: Displacement of 3[H]PDBu from Protein kinase C alpha C1b domain
[16] = target: T5, Protein kinase C alpha type; experiment: Displacement of 3[H]PDBu from Protein kinase C alpha C1a domain
[17] = target: T1, Protein kinase C eta type; experiment: Displacement of 3[H]PDBu from Protein kinase C eta C1a domain
[18] = target: T6, Protein kinase C epsilon type (Homo sapiens, UniProt Q02156); experiment: Displacement of 3[H]PDBu from Protein kinase C epsilon C1a domain
T6 sequence (Q02156 whole entry): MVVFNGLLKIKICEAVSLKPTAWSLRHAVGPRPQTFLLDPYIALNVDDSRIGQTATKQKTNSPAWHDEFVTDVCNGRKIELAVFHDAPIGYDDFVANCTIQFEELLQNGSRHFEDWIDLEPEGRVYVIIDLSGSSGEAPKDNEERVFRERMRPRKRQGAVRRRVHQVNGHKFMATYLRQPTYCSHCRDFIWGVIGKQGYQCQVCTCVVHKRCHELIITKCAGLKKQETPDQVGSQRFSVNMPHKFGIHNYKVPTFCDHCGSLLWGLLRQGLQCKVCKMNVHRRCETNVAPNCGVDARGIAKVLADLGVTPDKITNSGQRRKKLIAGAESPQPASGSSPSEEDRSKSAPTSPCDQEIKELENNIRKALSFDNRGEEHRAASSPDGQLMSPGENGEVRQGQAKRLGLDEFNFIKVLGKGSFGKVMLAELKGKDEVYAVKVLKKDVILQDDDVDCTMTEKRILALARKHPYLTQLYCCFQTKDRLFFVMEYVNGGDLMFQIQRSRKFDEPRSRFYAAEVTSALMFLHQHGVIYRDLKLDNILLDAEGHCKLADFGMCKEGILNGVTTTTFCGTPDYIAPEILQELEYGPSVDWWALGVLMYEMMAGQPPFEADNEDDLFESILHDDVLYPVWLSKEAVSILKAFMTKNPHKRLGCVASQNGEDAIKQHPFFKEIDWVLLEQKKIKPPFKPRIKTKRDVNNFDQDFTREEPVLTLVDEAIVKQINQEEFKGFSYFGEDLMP

HL-60 [19] = experiment: Compound was tested in vitro for its ability to induce superoxide generation in HL-60 cells at concentration 10e-9 M; type: functional, Homo sapiens
[20] = target: T6, Protein kinase C epsilon type; experiment: Displacement of 3[H]PDBu from Protein kinase C epsilon C1b domain
[21] = target: T3, Protein kinase C delta type; experiment: Displacement of 3[H]PDBu from Protein kinase C delta C1b domain
[22] = target: T2, Protein kinase C beta type; experiment: Displacement of 3[H]PDBu from Protein kinase C beta C1b domain
HL-60 [23] = experiment: Compound was tested in vitro for percent EBV0EA-inducing activity in […] cells at concentration 10e-8 M; type: functional, Homo sapiens

Compound | Activity (HL-60 [3]) | Activity (HL-60 [6]) | Activity (HL-60 [7]) [%] | Activity (HL-60 [8]) | Activity (HL-60 [9]) [%] | Activity (HL-60 [14]) [%] | Activity (HL-60 [19]) | Activity (HL-60 [23]) [%] | other results
CCCC(=O)O[C@@H]1[C@@H](C)[C@]2(O)[C@@H]3C=C(C)C(=O)[C@@H]3CC(CO)=C[C@H]2[C@@H]2C(C)(C)[C@]12OC(=O)CCC | 0.05 nM min-1 (10e-6*cells)-1 | – | – | – | – | – | – | – | Activity (HL-60 [1]): 17.9%; Activity (HL-60 [2]): 2.7%
CCCC(=O)O[C@@H]1[C@@H](C)[C@]2(O)[C@@H]3C=C(C)C(=O)[C@H]3CC(CO)=C[C@H]2[C@@H]2C(C)(C)[C@]12OC(=O)CCC | 3.14 nM min-1 (10e-6*cells)-1 | 0.08 nM min-1 (10e-6*cells)-1 | 1.2 | 3.16 nM min-1 (10e-6*cells)-1 | 25.6 | 31.1 | 0.11 nM min-1 (10e-6*cells)-1 | 7 | Ki [4]: 0.35 nM; Ki [5]: 0.73 nM; Ki [10]: 2.78 nM; Ki [11]: 70.2 nM; Ki [12]: 5.23 nM; Ki [13]: 1.84 nM; Ki [15]: 13.9 nM; Ki [16]: 4.05 nM; Ki [17]: 14.9 nM; Ki [18]: 4.49 nM; Ki [20]: 0.58 nM; Ki [21]: 0.55 nM; Ki [22]: 2.23 nM
CCCC(=O)O[C@@H]1[C@@H](C)[C@@]2(O)[C@@H](C=C(CO)C[C@]3(O)C(=O)C(C)=C[C@@H]23)[C@@H]2C(C)(C)[C@]12OC(=O)CCC | 3.32 nM min-1 (10e-6*cells)-1 | 0.11 nM min-1 (10e-6*cells)-1 | 3.6 | 3.11 nM min-1 (10e-6*cells)-1 | 29.9 | 33.1 | 0 nM min-1 (10e-6*cells)-1 | 10.8 | –
